Read-outs that look alike come from different tables or passages of the source.

Test in all cases: microbe, parasite or virus in culture
Common to all, as to format: cell-based, Hepatitis C virus (HCV)

Assay [1] deals with HCV replicon 1A. Conditions: Replicon Assay A. In short, it runs like this: (§1)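 Read-out is replicon RNA per cell by real-time RT-PCR, normalised to cyclophilin mRNA amplified in the same well. Cells were exposed to compound for 3 days at 2000 cells/well in medium with 5% fetal bovine serum and 0.5% DMSO.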
Assay [2] has as its system HCV replicon 2B. Conditions: Replicon Assay A. In short, it runs like this: as §1
Assay [3] deals with HCV replicon 1AY93H. Conditions: Replicon Assay A. In short, it runs like this:
as §1

Assay [4] deals with HCV replicon 1B. Conditions: Replicon Assay B. The method, then: In an alternate assay (“Replicon Assay B”), 1000 cells were seeded per well in a 384-well collagen coated black plate from Greiner bio-one (Cat #781946) in 5% FBS. Inhibitors of this invention were added at 24 h post-seeding, and the plates were incubated for 3 days. Cells were subsequently lysed with Qiagen lysis buffer (Cat #1062731) to extract the RNA. HCV replicon RNA level was measured by real-time PCR using the RNA-to-CT kit from Applied Biosystem (Cat #4392656) and genotype-specific primers and probes. The amplicon was located within NS5B. […] (SEQ. ID NO. 2); the probe sequence was FAM-labeled […] (SEQ. ID NO. 3).
The real-time RT-PCR reactions were run on ABI PRISM 7900HT or Viia7 Sequence Detection System using the following program: 48° C. for 30 minutes, 95° C. for 10 minutes, 40 cycles of 95° C. for 15 sec, 60° C. for 1 minutes.
Data for replicons 1A, 1AY93H and 2B were obtained using Replicon Assay A and data for replicons 1AQ30D and 1B were obtained using Replicon Assay B.

Where [5] appears, read: read-out: 1A Y93H IC50, replicon 1AY93H.
Where [6] appears, read: read-out: 2B IC50, HCV replicon 2B.
Where [7] appears, read: read-out: 1A Y93H IC50, HCV replicon 1A Y93H.
Where [8] appears, read: Hepatitis C virus, HCV replicon 1B.

For `COC(=O)N[C@H](C(=O)N1CCC[C@H]1c1ncc(-c2cc(F)c3c(c2)OC(c2ccc(F)s2)n2c-3cc3cc(-c4cnc([C@@H]5CCCN5C(=O)[C@@H](NC(=O)OC)C(C)C)[nH]4)ccc32)[nH]1)C(C)C` (single isomer, unassigned) [Compound 14], the IC50 is 0.002 nM in assay [1] (replicon 1A); 0.23 nM in assay [2] (read-out: 2B IC50, replicon 2B); 0.059 nM in assay [3] (setting [5]); 0.0024 nM in assay [4] (replicon 1B).
Take `COC(=O)N[C@H](C(=O)N1CCC[C@H]1c1ncc(-c2cc(F)c3c(c2)OC(c2cc4c(s2)CCC4)n2c-3cc3cc(-c4cnc([C@@H]5CCCN5C(=O)[C@@H](NC(=O)OC)C(C)C)[nH]4)ccc32)[nH]1)C(C)C` (single isomer, unassigned) [Compound 27]: the 50% inhibitory concentration (IC50) came to 0.0016 nM in assay [1] (Hepatitis C virus, replicon 1A); 1.49 nM in assay [2] (Hepatitis C virus, read-out: 2B IC50 (nM), replicon 2B); 0.65 nM in assay [3] (Hepatitis C virus, read-out: 1A Y93H IC50 (nM), replicon 1AY93H); 0.0014 nM in assay [4] (Hepatitis C virus, replicon 1B).
`COC(=O)NC(C(=O)N1CCC[C@H]1c1ncc(-c2ccc3c(c2)cc2n3C(c3ccc(C4CC4)s3)Oc3cc(-c4cnc([C@@H]5CCCN5C(=O)[C@@H](NC(=O)OC)C(C)C)[nH]4)cc(F)c3-2)[nH]1)C(C)(C)F` (single isomer, unassigned) [Compound 77]: the IC50 in assay [1] (replicon 1A) worked out at 0.0018 nM; in assay [2] (read-out: 2B IC50, replicon 2B), 0.41 nM; in assay [3] (setting [5]) it was 0.24 nM; in assay [4] (replicon 1B), 0.0029 nM.
For the molecule `CCOC(C)[C@H](NC(=O)OC)C(=O)N1CCC[C@H]1c1ncc(-c2cc(F)c3c(c2)OC(c2cc(C)c(C)s2)n2c-3cc3cc(-c4cnc([C@@H]5CCCN5C(=O)[C@@H](NC(=O)OC)C(C)C)[nH]4)ccc32)[nH]1` (single isomer, unassigned) [Compound 79], the IC50 in assay [1] (Hepatitis C virus, replicon 1A) worked out at 0.0021 nM; in assay [2] (read-out: 2B IC50, replicon 2B) it was 0.32 nM; in assay [3] (setting [5]) it was 0.14 nM; in assay [4] (Hepatitis C virus, replicon 1B), 0.0034 nM.
The matching figures for `COC(=O)N[C@H](C(=O)N1CCC[C@H]1c1ncc(-c2cc(F)c3c(c2)OC(c2ccc(C(C)(C)O)s2)n2c-3cc3cc(-c4cnc([C@@H]5CCCN5C(=O)[C@@H](NC(=O)OC)C(C)C)[nH]4)ccc32)[nH]1)C(C)C` (single isomer, unassigned) [Compound 83]: 0.0032 nM, 0.8 nM, 0.42 nM and 0.0031 nM.
On to `COC(=O)NC(C(=O)N1CCC[C@H]1c1ncc(-c2ccc3c(c2)cc2n3C(c3ccc(C4CC4)s3)Oc3cc(-c4cnc([C@@H]5C[C@@H](F)CN5C(=O)[C@@H](NC(=O)OC)C(C)C)[nH]4)cc(F)c3-2)[nH]1)C(C)(C)F` (single isomer, unassigned) [Compound 114], for which the IC50 stood at 0.0013 nM in assay [1] (replicon 1A); 0.2 nM in assay [2] (read-out: 2B IC50, replicon 2B); 0.002 nM in assay [3] (setting [5]); 0.0024 nM in assay [4] (Hepatitis C virus, replicon 1B).
For `COC(=O)NC(C(=O)N1CCC[C@H]1c1ncc(-c2ccc3c(c2)cc2n3C(c3cc(C)c(C)s3)Oc3cc(-c4cnc([C@@H]5CCCN5C(=O)[C@@H](NC(=O)OC)C5CCOCC5)[nH]4)cc(F)c3-2)[nH]1)C(C)(C)F` (single isomer, unassigned) [Compound 130], in that order: 0.0017 nM, 0.24 nM, 0.24 nM and 0.0036 nM.
`COC(=O)NC(C(=O)N1CCC[C@H]1c1ncc(-c2cc(F)c3c(c2)OC(c2ccc(C4CC4)s2)n2c-3cc3cc(-c4cnc([C@@H]5CCCN5C(=O)[C@@H](NC(=O)OC)C5CCOCC5)[nH]4)ccc32)[nH]1)C(C)(C)F` (single isomer, unassigned) [Compound 169]: the half-maximal inhibitory concentration (IC50) in assay [1] (replicon 1A) was determined as 0.0012 nM; in assay [2] (read-out: 2B IC50, replicon 2B), 0.075 nM; in assay [3] (setting [5]) it was 0.045 nM; in assay [4] (Hepatitis C virus, replicon 1B), 0.0034 nM.
`COC(=O)NC(C(=O)N1CCC[C@H]1c1ncc(-c2ccc3c(c2)cc2n3C(c3ccc(C4CC4)s3)Oc3cc(-c4cnc([C@@H]5CCCN5C(=O)[C@@H](NC(=O)OC)C(C)C)[nH]4)cc(F)c3-2)[nH]1)C1CN(C(=O)OC)C1` (single isomer, unassigned) [Compound 228]: the half-maximal inhibitory concentration (IC50) in assay [1] (replicon 1A) came out at 0.002 nM; in assay [2] (read-out: 2B IC50, replicon 2B), 0.47 nM; in assay [3] (setting [5]), 0.5 nM; in assay [4] (replicon 1B) it was 0.0038 nM.
In the case of `CC[C@@H]1CC(C(NC(=O)OC)C(=O)N2CCC[C@H]2c2ncc(-c3ccc4c(c3)cc3n4C(c4ccc(C5CC5)s4)Oc4cc(-c5cnc([C@@H]6CCCN6C(=O)[C@@H](NC(=O)OC)C(C)C)[nH]5)cc(F)c4-3)[nH]2)C[C@H](CC)O1` (single isomer, unassigned) [Compound 289], the IC50 in assay [1] (replicon 1A) amounted to 0.0031 nM; in assay [2] (read-out: 2B IC50, replicon 2B), 5.64 nM; in assay [3] (setting [5]), 1.24 nM; in assay [4] (Hepatitis C virus, replicon 1B), 0.0042 nM.
For `CCc1ccc(C2Oc3cc(-c4cnc([C@@H]5CCCN5C(=O)C(NC(=O)OC)C5CCOC(C)(C)C5)[nH]4)cc(F)c3-c3cc4cc(-c5cnc([C@@H]6CCCN6C(=O)C(NC(=O)OC)C6CCOC(C)(C)C6)[nH]5)ccc4n32)s1` (single isomer, unassigned) [Compound 291], in that order: 0.0024 nM, 0.028 nM, 0.28 nM and 0.0023 nM.
As for `CCc1ccc(C2Oc3cc(-c4c[nH]c([C@@H]5CCCN5C(=O)[C@@H](NC(=O)OC)C(C)C)n4)ccc3-c3cc4c(F)c(-c5c[nH]c([C@@H]6CCCN6C(=O)C(NC(=O)OC)C6C[C@@H](C)O[C@@H](C)C6)n5)ccc4n32)s1` (single isomer, unassigned) [Compound 361], the 50% inhibitory concentration (IC50) in assay [1] (replicon 1A) stood at 0.0036 nM; in assay [2] (read-out: 2B IC50, replicon 2B), 0.0389 nM; in assay [3] (setting [5]), 0.138 nM; in assay [4] (Hepatitis C virus, replicon 1B), 0.0035 nM.
With `COC(=O)NC(C(=O)N1CCC[C@H]1c1ncc(-c2ccc3c(c2)cc2n3C(c3ccc(CC4CC4)s3)Oc3cc(-c4cnc([C@@H]5CCCN5C(=O)[C@@H](NC(=O)OC)C(C)C)[nH]4)cc(F)c3-2)[nH]1)C1CCOC(C)(C)C1` (single isomer, unassigned) [Compound 407], the IC50 is 0.0017 nM in assay [1] (HCV replicon 1A), 0.26 nM in assay [2] (setting [6]), 0.258 nM in assay [3] (setting [7]) and 0.0019 nM in assay [4] (setting [8]).
Consider `COC(=O)NC(C(=O)N1CCC[C@H]1c1ncc(-c2ccc3c(c2)cc2n3C(c3ccc(CC4CC4)s3)Oc3cc(-c4cnc([C@@H]5CCCN5C(=O)[C@@H](NC(=O)OC)C(C)C)[nH]4)cc(F)c3-2)[nH]1)C1CCOC(C)(C)C1` (single isomer, unassigned) [Compound 409], for which the IC50 came out at 0.0017 nM in assay [1] (HCV replicon 1A), 0.181 nM in assay [2] (setting [6]), 0.746 nM in assay [3] (setting [7]) and 0.0025 nM in assay [4] (HCV replicon 1B).
The matching figures for `COC(=O)N[C@H](C(=O)N1C2CC2C[C@H]1c1ncc(-c2cc(F)c3c(c2)OC(c2ccc(C4CC4)s2)n2c-3cc3cc(-c4cnc([C@@H]5CCCN5C(=O)[C@@H](NC(=O)OC)C5C[C@@H](C)O[C@@H](C)C5)[nH]4)ccc32)[nH]1)C(C)C` (single isomer, unassigned) [Compound 558]: 0.0535 nM, 1.22 nM, 0.362 nM and 0.0358 nM.
As to `COC(=O)N[C@H](C(=O)N1CCC[C@H]1c1ncc(-c2ccc3c(c2)O[C@@H](c2cc4c(s2)CCC4)n2c-3cc3cc(-c4cnc([C@@H]5CCCN5C(=O)[C@@H](NC(=O)OC)C(C)C)[nH]4)ccc32)[nH]1)C(C)C` (single isomer, unassigned) [Compound 600], the concentration for half-maximal inhibition (IC50) in assay [1] (Hepatitis C virus, HCV replicon 1A) was 0.0256 nM; in assay [2] (Hepatitis C virus, read-out: 2B IC50, HCV replicon 2B), 1.09 nM; in assay [3] (Hepatitis C virus, read-out: 1A Y93H IC50, HCV replicon 1A Y93H), 0.57 nM; in assay [4] (setting [8]) it was 0.186 nM.
Regarding `COC(=O)N[C@H](C(=O)N1CCC[C@H]1c1ncc(-c2ccc3c(c2)OC(c2ccc(C4CC4)s2)n2c-3c(F)c3cc(-c4cnc([C@@H]5CCCN5C(=O)[C@@H](NC(=O)OC)C(C)C)[nH]4)ccc32)[nH]1)C(C)C` (single isomer, unassigned) [Compound 606], the concentration for half-maximal inhibition (IC50) was found to be 0.0026 nM in assay [1] (HCV replicon 1A), 0.286 nM in assay [2] (setting [6]), 0.161 nM in assay [3] (setting [7]) and 0.0032 nM in assay [4] (HCV replicon 1B).
As to `COC(=O)N[C@H](C(=O)N1CCC[C@H]1c1ncc(-c2ccc3c(c2)OC(c2ccc(C4CC4)s2)n2c-3cc3cc(-c4cnc([C@@H]5CCCN5C(=O)[C@@H](NC(=O)OC)C(C)C)[nH]4)ccc32)[nH]1)C(C)C` (single isomer, unassigned) [Compound 704], the half-inhibitory concentration (IC50) in assay [1] (HCV replicon 1A) was 0.0029 nM; in assay [2] (setting [6]) it was 1.07 nM; in assay [3] (setting [7]), 0.45 nM; in assay [4] (setting [8]), 0.0029 nM.

Values taken from patent publication US20160257697A1, “THIOPHENE-SUBSTITUTED TETRACYCLIC COMPOUNDS AND METHODS OFUSE THEREOF FOR THE TREATMENT OF VIRAL DISEASES” (priority 2013, published 2016).
